# Literature values in US20210137903A1, “ANTI-ANDROGENS FOR THE TREATMENT OF PROSTRATE CANCER” (priority 2019, published 2021).
# Columns and labels:
# AR = AR (Homo sapiens, UniProt P10275); settings: cited from earlier work
# T877A AR mutant = biological target: T1, T877A AR mutant (Homo sapiens, UniProt P10275, T878A); settings: cited from earlier work
# T1 sequence (P10275 1-920 T878A): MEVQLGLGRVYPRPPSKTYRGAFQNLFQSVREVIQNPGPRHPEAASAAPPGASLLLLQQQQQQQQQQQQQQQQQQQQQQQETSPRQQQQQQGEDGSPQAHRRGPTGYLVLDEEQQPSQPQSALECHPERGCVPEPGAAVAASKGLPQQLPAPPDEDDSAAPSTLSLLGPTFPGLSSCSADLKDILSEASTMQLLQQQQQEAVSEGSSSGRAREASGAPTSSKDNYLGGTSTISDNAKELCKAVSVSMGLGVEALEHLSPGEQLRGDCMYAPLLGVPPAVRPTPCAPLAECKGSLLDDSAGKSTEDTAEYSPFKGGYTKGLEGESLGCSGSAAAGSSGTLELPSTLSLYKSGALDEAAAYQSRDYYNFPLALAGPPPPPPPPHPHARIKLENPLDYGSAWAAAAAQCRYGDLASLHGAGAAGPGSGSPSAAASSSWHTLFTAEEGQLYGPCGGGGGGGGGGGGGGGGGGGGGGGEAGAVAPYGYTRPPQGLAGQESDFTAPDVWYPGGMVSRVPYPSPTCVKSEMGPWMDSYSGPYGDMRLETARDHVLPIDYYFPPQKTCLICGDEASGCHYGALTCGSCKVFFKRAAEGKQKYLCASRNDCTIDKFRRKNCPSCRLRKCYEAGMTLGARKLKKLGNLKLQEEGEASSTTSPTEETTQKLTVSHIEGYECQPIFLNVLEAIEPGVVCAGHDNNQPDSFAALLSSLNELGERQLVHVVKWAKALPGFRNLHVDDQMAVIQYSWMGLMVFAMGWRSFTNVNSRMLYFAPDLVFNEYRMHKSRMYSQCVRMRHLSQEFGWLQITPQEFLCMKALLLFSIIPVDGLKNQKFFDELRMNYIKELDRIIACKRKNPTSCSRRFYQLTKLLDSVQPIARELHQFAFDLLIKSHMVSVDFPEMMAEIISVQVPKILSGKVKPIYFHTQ
# Sequence of AR (P10275 whole entry): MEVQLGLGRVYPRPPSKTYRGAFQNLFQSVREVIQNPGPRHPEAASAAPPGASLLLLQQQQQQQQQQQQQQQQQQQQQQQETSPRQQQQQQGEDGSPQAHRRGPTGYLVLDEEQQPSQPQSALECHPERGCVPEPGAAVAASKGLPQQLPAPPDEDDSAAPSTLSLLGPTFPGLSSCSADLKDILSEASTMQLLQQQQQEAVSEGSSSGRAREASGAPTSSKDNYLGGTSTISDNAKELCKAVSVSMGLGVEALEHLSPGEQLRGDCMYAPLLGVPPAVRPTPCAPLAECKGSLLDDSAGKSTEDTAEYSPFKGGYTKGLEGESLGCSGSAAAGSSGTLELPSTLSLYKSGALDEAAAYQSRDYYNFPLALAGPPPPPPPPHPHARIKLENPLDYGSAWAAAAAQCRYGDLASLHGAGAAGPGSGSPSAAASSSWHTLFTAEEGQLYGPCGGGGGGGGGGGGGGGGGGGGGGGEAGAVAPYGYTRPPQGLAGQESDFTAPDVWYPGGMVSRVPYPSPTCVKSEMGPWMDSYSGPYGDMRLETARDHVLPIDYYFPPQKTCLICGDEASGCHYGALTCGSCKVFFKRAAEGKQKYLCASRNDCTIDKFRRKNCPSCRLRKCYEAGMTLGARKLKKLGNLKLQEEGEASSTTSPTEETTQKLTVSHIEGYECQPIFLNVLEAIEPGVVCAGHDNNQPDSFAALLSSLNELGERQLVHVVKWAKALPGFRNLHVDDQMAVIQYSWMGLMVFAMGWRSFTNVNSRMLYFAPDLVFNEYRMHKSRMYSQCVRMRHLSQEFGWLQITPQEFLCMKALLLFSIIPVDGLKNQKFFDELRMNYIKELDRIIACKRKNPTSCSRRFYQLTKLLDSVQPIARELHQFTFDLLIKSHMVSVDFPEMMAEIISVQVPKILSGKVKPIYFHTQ
SMILES,affinity of binding to AR (AR),AR agonist activity (T877A AR mutant)
CC(O)c1cc(C(=O)N[C@@H](C)Cn2ccc(-c3ccc(C#N)c(Cl)c3)n2)[nH]n1 (some centres unmarked) [Darolutamide],high affinity,–
CC(C)(O)C(=O)Nc1ccc([N+](=O)[O-])c(C(F)(F)F)c1 [hydroxyflutamide],–,act as AR agonists
